How the values were obtained:
[1] = system: systolic blood pressure in spontaneously hypertensive rats; test: Acute efficacy in spontaneously hypertensive rats (SHR), telemetry blood pressure; type: in vivo, rat
Text: Acute Efficacy in Spontaneously Hypertensive Rats (SHR)
Spontaneously hypertensive rats (SHR, male, Charles River) were implanted with DSI TA11 PA-C40 telemetry device (Data Sciences, Inc., St. Paul, Minn.) under isoflurane or ketamine/metomidine anesthesia. The telemetry unit catheter was inserted into the descending aorta via the femoral artery and the telemetry device was implanted subcutaneously in the left flank area. Animals were allowed to recover from surgery for 14 days before the start of any studies. Blood pressure, heart rate, and activity signals from conscious, freely moving rats were recorded continuously for 30 seconds every 10 minutes. On the day prior to administration of compound, a single oral dose of vehicle (10% transcutol/20% Cremophor/70% water) was administered to all animals to establish baseline control data. The blood pressure lowering efficacy of compound (PO) or vehicle was evaluated following a single oral gavage. Data were collected as hourly averages, and changes in blood pressure were calculated by subtracting control baseline data on an hourly basis. Animals were maintained on normal diet with a 12 hour light-dark cycle.
Maximum peak decreases of systolic blood pressure (SBP) in SHR at a particular P.O. dose (mpk milligrams per kilogram) for the following representative compounds are provided below in Table 6.
Category A=SBP in SHRs <20 mmHg; Category B=SBP in SHRs 20-40 mmHg;
Category C=SBP in SHRs >40 mmHg

[2] = target: T1, sGC α1/β1 heterodimer stably expressed in CHO-K1 cells (CHO-K1/sGC) (Homo sapiens, UniProt Q02108+Q02153); test: Cell-based sGC functional assay (CASA assay), cGMP generation by HTRF; details: for Emax: CHO-K1, maximum cGMP production of Compound A set to 100% activation, read-out: % Act. (percent activation relative to Compound A); for EC50: CHO-K1/sGC cells, 1 hr at 37° C., 4P fit, presence or absence of DETA-NO not given, read-out: IP (nM) (inflection point)
T1 construct: expressed in transfected cells
T1 sequence (Q02108 1-690): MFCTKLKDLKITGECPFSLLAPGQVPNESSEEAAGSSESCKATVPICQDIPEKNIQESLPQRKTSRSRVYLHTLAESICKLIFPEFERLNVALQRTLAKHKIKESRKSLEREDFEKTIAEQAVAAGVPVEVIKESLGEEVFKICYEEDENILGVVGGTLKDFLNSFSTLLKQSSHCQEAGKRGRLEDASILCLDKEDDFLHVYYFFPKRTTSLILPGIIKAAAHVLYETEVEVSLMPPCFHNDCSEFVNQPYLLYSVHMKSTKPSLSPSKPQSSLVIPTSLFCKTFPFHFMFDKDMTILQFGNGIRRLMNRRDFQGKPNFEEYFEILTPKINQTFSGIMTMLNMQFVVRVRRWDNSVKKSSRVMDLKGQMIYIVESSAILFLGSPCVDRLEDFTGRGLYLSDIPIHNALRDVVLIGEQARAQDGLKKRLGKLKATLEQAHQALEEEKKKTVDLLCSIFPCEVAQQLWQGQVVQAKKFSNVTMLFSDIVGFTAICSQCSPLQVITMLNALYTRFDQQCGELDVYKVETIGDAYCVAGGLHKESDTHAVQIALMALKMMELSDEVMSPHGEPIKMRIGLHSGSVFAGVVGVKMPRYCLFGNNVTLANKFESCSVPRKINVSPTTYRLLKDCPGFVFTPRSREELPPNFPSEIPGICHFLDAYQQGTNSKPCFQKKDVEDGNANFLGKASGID
T1 sequence (Q02153 1-619): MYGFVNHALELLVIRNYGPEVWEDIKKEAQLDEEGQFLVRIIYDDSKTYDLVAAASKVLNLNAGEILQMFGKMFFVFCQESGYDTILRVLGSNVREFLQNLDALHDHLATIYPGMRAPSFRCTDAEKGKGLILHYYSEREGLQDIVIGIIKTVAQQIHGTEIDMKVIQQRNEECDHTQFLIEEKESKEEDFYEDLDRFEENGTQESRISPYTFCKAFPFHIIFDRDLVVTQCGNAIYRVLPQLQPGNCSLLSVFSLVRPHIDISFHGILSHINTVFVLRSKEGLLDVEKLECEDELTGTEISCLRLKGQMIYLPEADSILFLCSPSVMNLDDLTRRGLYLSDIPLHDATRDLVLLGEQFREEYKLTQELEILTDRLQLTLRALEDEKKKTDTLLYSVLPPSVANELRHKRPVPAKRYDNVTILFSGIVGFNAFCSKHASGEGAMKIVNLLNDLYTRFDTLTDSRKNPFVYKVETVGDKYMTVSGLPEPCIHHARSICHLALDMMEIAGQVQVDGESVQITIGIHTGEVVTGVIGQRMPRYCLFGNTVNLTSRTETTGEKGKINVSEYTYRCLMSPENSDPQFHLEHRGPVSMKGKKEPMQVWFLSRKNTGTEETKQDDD
Method in brief: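 CHO-K1/sGC cells (4×10^5/mL) in EBSS with 5 mM MgCl2, 10 mM HEPES, 0.05% BSA and 0.5 mM IBMX, treated 1 hr at 37° C with compounds (2.5% DMSO) with or without 1 μM DETA-NO. cGMP measured by HTRF, expressed as % of a reference heme-dependent activator's maximum; inflection point and fold induction from 4P fit.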

Row | Emax [2] | EC50 [2] | % Act. (percent activation relative to Compound A) ([2]; maximum cGMP production of Compound A set to 100% activation) | Compound | Maximum peak decrease of systolic blood pressure (SBP), Category ([1]; single oral dose 0.3 mpk P.O.) | Maximum peak decrease of systolic blood pressure (SBP), Category ([1]; single oral dose 3.0 mpk P.O.) | Maximum peak decrease of systolic blood pressure (SBP), Category ([1]; single oral dose 1.0 mpk P.O.)
1 | 110% | 17 nM | – | CC1(c2ccc(F)cc2)C(=O)Nc2nc(-c3cn4ccnc4c(Oc4cccc(F)c4)n3)nc(N)c21 (stereo not drawn) [Example 1A, 4-Amino-2-[8-(3-fluorophenoxy)imidazo[1,2-a]pyrazin-6-yl]-5-(4-fluorophenyl)-5-methyl-5,7-dihydro-6H-pyrrolo[2,3-d]pyrimidin-6-one] | B (Category B=SBP in SHRs 20-40 mmHg) | – | –
2 | 127% | 317 nM | – | CC1(c2ccc(F)cc2)C(=O)Nc2nc(-c3cn4ccnc4c(OCC(F)(F)C(F)(F)F)n3)nc(N)c21 (stereo not drawn) [Example 2A, 4-amino-5-(4-fluorophenyl)-5-methyl-2-[8-(2,2,3,3,3-pentafluoropropoxy)imidazo[1,2-a]pyrazin-6-yl]-5,7-dihydro-6H-pyrrolo[2,3-d]pyrimidin-6-one] | – | B (Category B=SBP in SHRs 20-40 mmHg) | –
3 | 100% | 62 nM | – | CC1(c2ccc(F)cc2)C(=O)Nc2nc(-c3cn4ccnc4c(Oc4ccccc4F)n3)nc(N)c21 (stereo not drawn) [Example 4A, 4-amino-2-[8-(2-fluorophenoxy)imidazo[1,2-a]pyrazin-6-yl]-5-(4-fluorophenyl)-5-methyl-5,7-dihydro-6H-pyrrolo[2,3-d] pyrimidin-6-one] | – | – | C (Category C=SBP in SHRs >40 mmHg)
4 | 127% | 45 nM | – | CC1(c2ccccc2)C(=O)Nc2nc(-c3cn4ccnc4c(Oc4ccccc4)n3)nc(N)c21 (stereo not drawn) [Example 10B, 4-amino-5-methyl-2-(8-phenoxy-imidazo[1,2-a]pyrazin-6-yl)-5-phenyl-5,7-dihydro-6H-pyrrolo[2,3-d] pyrimidin-6-one] | B (Category B=SBP in SHRs 20-40 mmHg) | – | –
5 | 168% | 171 nM | – | CC1(c2ccc(Cl)cc2)C(=O)Nc2nc(-c3cn4ccnc4c(Oc4cccnc4)n3)nc(N)c21 (stereo not drawn) [Example 30A, 4-amino-5-(4-chlorophenyl)-5-methyl-2-[8-(pyridin-3-yloxy)imidazo[1,2-a]pyrazin-6-yl]-5,7-dihydro-6H-pyrrolo[2,3-d] pyrimidin-6-one] | – | – | B (Category B=SBP in SHRs 20-40 mmHg)
6 | 129% | 157 nM | – | CC1(c2ccc(Cl)cc2)C(=O)Nc2nc(-c3cn4ccnc4c(OCC4CC(F)(F)C4)n3)nc(N)c21 (stereo not drawn) [Example 32A, 4-amino-5-(4-chlorophenyl)-2-{8-[(3,3-difluoro-cyclobutyl)methoxy]imidazo [1,2-a]pyrazin-6-yl}-5-methyl-5,7-dihydro-6H-pyrrolo[2,3-d] pyrimidin-6-one] | – | – | B (Category B=SBP in SHRs 20-40 mmHg)
7 | 117% | 164 nM | – | CC1(c2ccc(F)cc2)C(=O)Nc2nc(-c3cn4ccnc4c(NCC(F)(F)C(F)(F)F)n3)nc(N)c21 (stereo not drawn) [Example 34A, 4-amino-5-(4-fluorophenyl)-5-methyl-2-{8-[(2,2,3,3,3-pentafluoropropyl)amino]imidazo [1,2-a]pyrazin-6-yl}-5,7-dihydro-6H-pyrrolo[2,3-d] pyrimidin-6-one] | – | A (Category A=SBP in SHRs <20 mmHg) | –
8 | 109% | 148 nM | – | CCCOc1nc(-c2nc(N)c3c(n2)NC(=O)C3(C)c2ccc(F)cc2)cn2ccnc12 (stereo not drawn) [Example 39A, 4-Amino-5-(4-fluorophenyl)-5-methyl-2-(8-propoxyimidazo[1,2-a]pyrazin-6-yl)-5,7-dihydro-6H-pyrrolo[2,3-d]pyrimidin-6-one] | – | – | C (Category C=SBP in SHRs >40 mmHg)
9 | 117% | 85 nM | – | COCCNc1nc(-c2nc(N)c3c(n2)NC(=O)C3(C)c2ccc(Cl)cc2)cn2ccnc12 (stereo not drawn) [Example 40A, 4-Amino-5-(4-chlorophenyl)-2-{8-[(2-methoxyethyl)amino]imidazo[1,2-a]pyrazin-6-yl}-5-methyl-5,7-dihydro-6H-pyrrolo[2,3-d]pyrimidin-6-one] | – | – | B (Category B=SBP in SHRs 20-40 mmHg)
10 | 167% | 701 nM | – | CC1(c2ccc(Cl)cc2)C(=O)Nc2nc(-c3cn4ccnc4c(NCC4CCOCC4)n3)nc(N)c21 (stereo not drawn) [Example 59A, 4-amino-5-(4-chlorophenyl)-5-methyl-2-{8-[(tetrahydro-2H-pyran-4-ylmethyl)amino]imidazo [1,2-a]pyrazin-6-yl}-5,7-dihydro-6H-pyrrolo[2,3-d] pyrimidin-6-one] | – | – | –
11 | 72% | 7 nM | – | CC1(c2ccc(Cl)cc2)C(=O)Nc2nc(-c3cn4ccnc4c(NCc4ccccc4)n3)nc(N)c21 (stereo not drawn) [Example 60A, 4-amino-2-[8-(benzylamino)imidazo[1,2-a]pyrazin-6-yl]-5-(4-chloro-phenyl)-5-methyl-5,7-dihydro-6H-pyrrolo[2,3-d] pyrimidin-6-one] | – | – | –
12 | 93% | 10 nM | – | CC(C)CSc1nc(-c2nc(N)c3c(n2)NC(=O)C3(C)c2ccc(F)cc2)cn2ccnc12 (stereo not drawn) [Example 63A, 4-amino-5-(4-fluorophenyl)-5-methyl-2-{8-[(2-methylpropyl)sulfanyl]imidazo [1,2-a]pyrazin-6-yl}-5,7-dihydro-6H-pyrrolo[2,3-d] pyrimidin-6-one] | – | – | –
13 | 67% | 73 nM | – | CC1(c2ccc(F)cc2)C(=O)Nc2nc(-c3cn4ccnc4c(SCCC(F)(F)F)n3)nc(N)c21 (stereo not drawn) [Example 64A, 4-amino-5-(4-fluorophenyl)-5-methyl-2-{8-[(3,3,3-trifluoro-propyl)sulfanyl]imidazo[1,2-a]pyrazin-6-yl}-5,7-dihydro-6H-pyrrolo[2,3-d] pyrimidin-6-one] | – | – | –
14 | 81% | 336 nM | – | CC(Nc1nc(-c2nc(N)c3c(n2)NC(=O)C3(C)c2ccc(Cl)cc2)cn2ccnc12)c1ccccc1 (stereo not drawn) [Example 73, 4-amino-5-(4-chlorophenyl)-5-methyl-2-{8-[(1-phenylethyl)amino]imidazo [1,2-a]pyrazin-6-yl}-5,7-dihydro-6H-pyrrolo[2,3-d] pyrimidin-6-one] | – | – | –
15 | – | 231 nM | 87% | CC(Nc1nc(-c2nc(N)c3c(n2)NC(=O)C3(C)c2ccc(Cl)cc2)cn2ccnc12)c1ccccc1 (stereo not drawn) [Example 74, 4-amino-5-(4-chlorophenyl)-5-methyl-2-{8-[(1-phenylethyl)amino]imidazo [1,2-a]pyrazin-6-yl}-5,7-dihydro-6H-pyrrolo[2,3-d] pyrimidin-6-one] | – | – | –

From US10245264B2, “Substituted imidazo[1,2-a]pyrazines as soluble guanylate cyclase activators” (Merck Sharp & Dohme Corp., priority 2015, dated 2019)
